According to US8148392B2, “2-indolyl imidazo [4,5-d] phenanthroline derivatives and their use in the treatment of cancer” (Lorus Therapeutics Inc., priority 2005, dated 2012):

These compounds were tested on human colon carcinoma HT-29 cells (assay: XTT cell proliferation assay, HT-29). Settings: HT-29, XTT, as Example 13, Table 7.
Assay type: cell-based
Experimental: The ability of compounds of Formula I to inhibit the proliferation of human colon carcinoma HT-29 cells was tested as follows. HT-29 colon carcinoma cells used in this example and subsequent examples were maintained as a monolayer in a growth medium; McCoy's 5A modified medium (Sigma, St. Louis, Mo.), supplemented with 2 mM L-glutamine (Gibco, Grand Island, N.Y.), 10% fetal bovine serum (FBS) (Multicell, WISENT Inc. St-Bruno, QC), antibiotic-antimycotic (Multicell), at 37° C. in a 5% CO2-humidified incubator. Cells were transferred onto 150 mm tissue culture plates and grown until sub-confluency (70-80%) prior to their use. The in vitro antiproliferative activity of compounds was evaluated by incubating the cells with varying concentrations of the compounds as shown in Table 1 for 6-7 days. The efficacy of these compounds in this cell proliferation assay was measured based in the ability of live cells to reduce the tetrazolium salt XTT to orange colored compounds of formazan (XTT cell proliferation kit II, Roche Applied Science, Montreal, QC).
The ability of compounds of Formula I to inhibit the proliferation of human colon carcinoma HT-29 cells was tested as described above in Example 13.
Cell growth inhibition IC50 (μM) by compounds of Formula I was tested on various cancer cell types by XTT cell proliferation assay. The growth inhibitory effects of the compounds of Formula I as shown below for the melanoma cell line SK-MEL-2 were reproducible by Lorus Therapeutics Inc.

Compound	IC50
O=C(Cn1cc(-c2nc3c4cccnc4c4ncccc4c3[nH]2)c2cc(Br)ccc21)N1CCCC1 [Compound 49]	>5-25< μg/ml
CC(C)(C)c1[nH]c2c(F)cc(F)cc2c1-c1nc2c3cccnc3c3ncccc3c2[nH]1 [Compound 66]	0.4 µg/mL
Fc1ccc2[nH]c(C34CC5CC(CC(C5)C3)C4)c(-c3nc4c5cccnc5c5ncccc5c4[nH]3)c2c1 [Compound 72]	0.18 µg/mL
Cc1ccc(C)c2c(-c3nc4c5cccnc5c5ncccc5c4[nH]3)c(C34CC5CC(CC(C5)C3)C4)[nH]c12 [Compound 70]	0.35 µg/mL
CC1CCCC(C)N1C(=O)Cn1cc(-c2nc3c4cccnc4c4ncccc4c3[nH]2)c2ccccc21 (centres unmarked) [Compound 50]	2.3 µg/mL
Cc1c(-c2nc3c4cccnc4c4ncccc4c3[nH]2)c2cc(F)ccc2n1Cc1ccccc1 [Compound 77]	0.24 µg/mL
c1ccc2c(-c3nc4c5cccnc5c5ncccc5c4[nH]3)c(C3CCCCC3)[nH]c2c1 [Compound 80]	0.42 µg/mL
Cn1c(-c2ccccc2)c(-c2nc3c4cccnc4c4ncccc4c3[nH]2)c2ccccc21 [Compound 18]	0.37 µg/mL
Cc1c(-c2nc3c4cccnc4c4ncccc4c3[nH]2)c2ccccc2n1CC(=O)N1CCCCC1 [Compound 57]	5 µg/mL
Cc1c(-c2nc3c4cccnc4c4ncccc4c3[nH]2)c2ccccc2n1CC(=O)N1CCCCCC1 [Compound 56]	5 µg/mL
CC1CCN(C(=O)Cn2cc(-c3nc4c5cccnc5c5ncccc5c4[nH]3)c3ccccc32)CC1 [Compound 51]	5 µg/mL
CC(C)n1cc(-c2nc3c4cccnc4c4ncccc4c3[nH]2)c2ccccc21 [Compound 52]	0.19 µg/mL
c1ccc2c(-c3nc4c5cccnc5c5ncccc5c4[nH]3)c[nH]c2c1 [Compound 1]	2 µg/mL
Clc1ccc(-c2[nH]c3ccccc3c2-c2nc3c4cccnc4c4ncccc4c3[nH]2)cc1 [Compound 42]	0.31 µg/mL
c1ccc2c(-c3nc4c5cccnc5c5ncccc5c4[nH]3)c(C3CCCC3)[nH]c2c1 [Compound 81]	0.4 µg/mL
O=S(=O)(c1ccc2[nH]c(Cl)c(-c3nc4c5cccnc5c5ncccc5c4[nH]3)c2c1)N1CCOCC1 [Compound 75]	>25 µg/mL
Cc1c(-c2nc3c4cccnc4c4ncccc4c3[nH]2)c2ccccc2n1CC(=O)N1CCC(C)CC1 [Compound 55]	2.4 µg/mL
O=C(Cn1cc(-c2nc3c4cccnc4c4ncccc4c3[nH]2)c2ccccc21)N1CCCC1 [Compound 46]	>5-25< μg/ml
Cc1c(-c2nc3c4cccnc4c4ncccc4c3[nH]2)c2ccccc2n1CC(=O)N1CCCC1 [Compound 43]	>5-25< μg/ml
CN1CCN(C(=O)Cn2cc(-c3nc4c5cccnc5c5ncccc5c4[nH]3)c3ccccc32)CC1 [Compound 58]	>
O=C(Cn1cc(-c2nc3c4cccnc4c4ncccc4c3[nH]2)c2ccccc21)N1CCCCCC1 [Compound 45]	7 µg/mL
Cn1c(N2CCOCC2)c(-c2nc3c4cccnc4c4ncccc4c3[nH]2)c2ccccc21 [Compound 59]	0.6 µg/mL
O=C(Cn1cc(-c2nc3c4cccnc4c4ncccc4c3[nH]2)c2ccccc21)N1CCCCC1 [Compound 47]	5 µg/mL
O=C(Cn1cc(-c2nc3c4cccnc4c4ncccc4c3[nH]2)c2ccccc21)N1CCOCC1 [Compound 44]	>5-25<, μg/ml
c1ccc2c(-c3nc4c5cccnc5c5ncccc5c4[nH]3)c(C34CC5CC(CC(C5)C3)C4)[nH]c2c1 [Compound 78]	0.38 µg/mL
c1ccc2c(c1)c(-c1nc3c4cccnc4c4ncccc4c3[nH]1)cn2C1CCCC1 [Compound 53]	0.19 µg/mL

Continued, values first:

IC50	Compound
0.38 µg/mL	CC(C)(C)c1[nH]c2c(F)cccc2c1-c1nc2c3cccnc3c3ncccc3c2[nH]1 [Compound 88]
0.39 µg/mL	Cc1cc(Cl)cc2c(-c3nc4c5cccnc5c5ncccc5c4[nH]3)c(C(C)(C)C)[nH]c12 [Compound 84]
0.24 µg/mL	Cc1ccc(Cl)c2c(-c3nc4c5cccnc5c5ncccc5c4[nH]3)c(C(C)(C)C)[nH]c12 [Compound 85]
0.45 µg/mL	CC(C)(C)c1[nH]c2ccccc2c1-c1nc2c3cccnc3c3ncccc3c2[nH]1 [Compound 39]
0.42 µg/mL	CC(C)(C)c1[nH]c2ccc(Br)cc2c1-c1nc2c3cccnc3c3ncccc3c2[nH]1 [Compound 87]
0.47 µg/mL	CCc1ccc2[nH]c(C(C)(C)C)c(-c3nc4c5cccnc5c5ncccc5c4[nH]3)c2c1 [Compound 86]
3.5 µg/mL	Cc1[nH]c2ccc([N+](=O)[O-])cc2c1-c1nc2c3cccnc3c3ncccc3c2[nH]1 [Compound 38]
0.34 µg/mL	CC(C)(C)c1[nH]c2ccc(-c3ccccc3)cc2c1-c1nc2c3cccnc3c3ncccc3c2[nH]1 [Compound 68]
0.1 µg/mL	Cc1ccc(F)c2c(-c3nc4c5cccnc5c5ncccc5c4[nH]3)c(C(C)(C)C)[nH]c12 [Compound 83]
0.65 µg/mL	CC(C)c1[nH]c2ccccc2c1-c1nc2c3cccnc3c3ncccc3c2[nH]1 [Compound 79]
0.35 µg/mL	CC(C)(C)c1[nH]c2ccc(F)cc2c1-c1nc2c3cccnc3c3ncccc3c2[nH]1 [Compound 65]
3 µg/mL	CC(C)(C)c1[nH]c2ccc(C#N)cc2c1-c1nc2c3cccnc3c3ncccc3c2[nH]1 [Compound 71]
0.18 µg/mL	Cc1ccccc1-c1[nH]c2ccc(C(C)(C)C)cc2c1-c1nc2c3cccnc3c3ncccc3c2[nH]1 [Compound 74]
0.61 µg/mL	CC(C)c1[nH]c2ccc(F)cc2c1-c1nc2c3cccnc3c3ncccc3c2[nH]1 [Compound 82]
0.4 µg/mL	CC(C)c1ccc2[nH]c(C(C)(C)C)c(-c3nc4c5cccnc5c5ncccc5c4[nH]3)c2c1 [Compound 61]
0.22 µg/mL	CC(C)(C)c1ccc2[nH]c(C3CCCC3)c(-c3nc4c5cccnc5c5ncccc5c4[nH]3)c2c1 [Compound 73]
0.28 µg/mL	COc1ccc2c(c1)c(-c1nc3c4cccnc4c4ncccc4c3[nH]1)cn2C(C)C [Compound 54]
>25 µg/mL	CN(C)S(=O)(=O)c1ccc2[nH]c(Cl)c(-c3nc4c5cccnc5c5ncccc5c4[nH]3)c2c1 [Compound 76]
<0.1 µg/mL	Cc1cccc2c(-c3nc4c5cccnc5c5ncccc5c4[nH]3)c(C(C)(C)C)[nH]c12 [Compound 62]

Same assay, conditions: Homo sapiens; HT-29, XTT, 6-7 days, Table 3; read-out: IC50

Compound	IC50
Fc1ccc(-c2[nH]c3ccccc3c2-c2nc3c4cccnc4c4ncccc4c3[nH]2)cc1 [Compound 10]	180 nM
COc1ccc2[nH]c(C)c(-c3nc4c5cccnc5c5ncccc5c4[nH]3)c2c1 [Compound 6]	1400 nM

Same assay, conditions: Homo sapiens; HT-29, XTT, as Example 13, Table 7; read-out: IC50

Compound	IC50
Cc1[nH]c2ccc(O)cc2c1-c1nc2c3cccnc3c3ncccc3c2[nH]1 [Compound 8]	> 25 µg/mL
Fc1ccc(-c2[nH]c3ccccc3c2-c2nc3c4cccnc4c4ncccc4c3[nH]2)cc1 [Compound 10]	0.18 µg/mL
Fc1ccc2[nH]cc(-c3nc4c5cccnc5c5ncccc5c4[nH]3)c2c1 [Compound 4]	3.5 µg/mL
COc1ccc2[nH]c(C)c(-c3nc4c5cccnc5c5ncccc5c4[nH]3)c2c1 [Compound 6]	1.4 µg/mL

The compounds below were run on supercoiled plasmid DNA (assay: In vitro DNA cleavage assay). Settings: 25 μM compound, 10 μM CuSO4, 100 μM ascorbic acid, 37° C., 30 minutes.
Assay type: biochemical
Experimental: Compound 3 was tested for its ability to cleave plasmid DNA in vitro in the presence of copper and the reducing agent ascorbic acid. Experiments were performed in a total of 20 μl, containing 10 mM NaH2PO4/Na2HPO4 buffer (pH 6.7), 1 μg of supercoiled plasmid DNA, 100 μM ascorbic acid, 25 μM drug compound (or vehicle), and 10 μM of CuSO4.5H20. The reaction mixture was incubated at 37° C. for 30 minutes, and 1 μl of 0.1 M EDTA was added to terminate the reaction. DNA loading buffer was added, and reactions were run at 80V for 80 minutes on a 1% agarose gel containing ethidium bromide.
To determine whether ions other than copper could suffice, DNA cleavage reactions were also carried out in the presence of zinc or iron. Reactions were performed as above, in the presence of 25 μM of CuSO4.5H20, ZnCl2, or FeCl2.4H20. […] Note that copper alone in the presence of ascorbic acid can shift the ratio of supercoiled DNA to open circular DNA.
To determine the ratios of compound to copper at which compound 3 was effective, reactions were performed as in FIG. 22A. The ratios of compound 3 to copper of 3:1, 2.5:1, 2:1, 1.5:1, and 1:1, as shown in FIG. 23 were achieved by maintaining the concentration of Cu constant at 10 μM, and varying the concentration of compound 3. The ratios of compound 3 to Cu of 1:1.5, 1:2, 1:2.5, and 1:3, were achieved by maintaining the concentration of compound 3 constant at 10 μM, and varying the concentration of copper.
Other compounds of Formula I, compounds 5, 7, 9 and 13 were also tested for their ability to cleave DNA at a ratio of 2.5:1 to copper (FIG. 23). Ratios of compound 3:copper as indicated, plus concentrations of copper in the absence of compound 3 were used in the DNA cleavage assay as described above.

Compound	cleavage of plasmid DNA
c1cnc2c(c1)ccc1cccnc12 [1,10-phenanthroline (OP), 1,10-phenanthroline, reference compound]	able to cleave plasmid DNA

Same assay, conditions: absence of copper or reducing agent

Compound	cleavage of plasmid DNA
c1cnc2c(c1)ccc1cccnc12 [1,10-phenanthroline (OP), 1,10-phenanthroline, reference compound]	Neither compound 3 nor OP was able to cleave DNA
